Measured values published in patent US11161839B2, “2-quinolone derived inhibitors of BCL6” (Cancer Research Technology Limited, priority 2017, dated 2021).

Target: human BCL6 BTB domain (Trx-6xHis-BCL6) (Homo sapiens (Human), UniProt P41182)
Assay: HTRF in vitro assay (BCL6 BTB domain / BCOR-AF633 peptide)
Type: binding
Settings: for IC50: read-out: HTRF pIC50 (converted)
[1] = further generated data (Table 1b), 1 nM Trx-6xHis-BCL6, 0.5 nM anti-6xHis-Terbium cryptate
[2] = initially generated data (Table 1a), 10 nM Trx-6xHis-BCL6, 1 nM anti-6xHis-Terbium cryptate

Row | HTRF pIC50 [1] | HTRF pIC50 [2] | IC50 [1] [nM] | SMILES
1 | 6.35 | – | – | Cn1c(=O)cc(NC2(CO)CC2)c2cc(Nc3cc(C(=O)O)nc(Cl)c3C#N)ccc21 [Example 9k, 6-chloro-5-cyano-4-((4-((1-(hydroxymethyl)cyclopropyl)amino)-1-methyl-2-oxo-1,2-dihydroquinolin-6-yl)amino)picolinic acid]
2 | 6.13 | – | – | C[C@H](Nc1cc(=O)n(C)c2ccc(Nc3cc(C(=O)O)nc(Cl)c3C#N)cc12)C1CC1 [Example 9d, (S)-6-chloro-5-cyano-4-((4-((1-cyclopropylethyl)amino)-1-methyl-2-oxo-1,2-dihydroquinolin-6-yl)amino)picolinic acid]
3 | 7.68 | – | – | Cn1c(=O)cc(NC(C)(C)c2ncccn2)c2cc(Nc3cc(C(=O)N4CC(CC#N)C4)nc(Cl)c3C#N)ccc21 [Example 8h, 2-chloro-6-(3-(cyanomethyl)azetidine-1-carbonyl)-4-((1-methyl-2-oxo-4-((2-(pyrimidin-2-yl)propan-2-yl)amino)-1,2-dihydroquinolin-6-yl)amino)nicotinonitrile]
4 | 6.49 | – | – | Cn1c(=O)cc(NC2CC2(C)C)c2cc(Nc3cc(C(=O)O)nc(Cl)c3C#N)ccc21 (centres unmarked) [Example 9j, 6-chloro-5-cyano-4-((4-((2,2-dimethylcyclopropyl)amino)-1-methyl-2-oxo-1,2-dihydroquinolin-6-yl)amino)picolinic acid]
5 | 7.82 | – | – | Cn1c(=O)cc(NC(C)(C)c2ncccn2)c2cc(Nc3cc(C(=O)N4CC5(CCO5)C4)nc(Cl)c3C#N)ccc21 [Example 8g, 2-chloro-4-((1-methyl-2-oxo-4-((2-(pyrimidin-2-yl)propan-2-yl)amino)-1,2-dihydroquinolin-6-yl)amino)-6-(1-oxa-6-azaspiro[3.3]heptane-6-carbonyl)nicotinonitrile]
6 | – | – | 245 | CC[C@@H]1C[C@H]1Nc1cc(=O)n(C)c2ccc(Nc3cc(C(=O)O)nc(Cl)c3C#N)cc12 (racemic) [Example 9i, rac-6-chloro-5-cyano-4-((4-(((1R,2R)-2-ethylcyclopropyl)amino)-1-methyl-2-oxo-1,2-dihydroquinolin-6-yl)amino)picolinic acid]
7 | 6.85 | 6.78 | – | CC(Nc1cc(=O)n(C)c2ccc(Nc3cc(C(=O)O)nc(Cl)c3C#N)cc12)C1CC1 (centres unmarked) [Example 2a, 6-Chloro-5-cyano-4-[[4-(1-cyclopropylethylamino)-1-methyl-2-oxo-6-quinolyl]amino]pyridine-2-carboxylic acid]
8 | 6.50 | 6.65 | – | Cc1n[nH]c(C(C)Nc2cc(=O)n(C)c3ccc(Nc4ccnc(Cl)c4C#N)cc23)n1 (centres unmarked) [Example 3c, 2-Chloro-4-((1-methyl-4-((1-(3-methyl-1H-1,2,4-triazol-5-yl)ethyl)amino)-2-oxo-1,2-dihydroquinolin-6-yl)amino)nicotinonitrile]
9 | – | – | 468 | CNC(=O)c1cc(Nc2ccc3c(c2)c(NC2CCC2OC)cc(=O)n3C)c(C#N)c(Cl)n1 (racemic) [Example 23b, rac-6-chloro-5-cyano 4-((4-(((1R,2R)-2-methoxycyclobutyl)amino)-1-methyl-2-oxo-1,2-dihydroquinolin-6-yl)amino)-N-methylpicolinamide or rac-6-chloro-5-cyano-4-((4-(((1R,2S)-2-methoxycyclobutyl)amino)-1-methyl-2-oxo-1,2-dihydroquinolin-6-yl)amino)-N-methylpicolinamide]
10 | 6.84 | – | – | CNC(=O)c1cc(Nc2ccc3c(c2)c(NC2(C#N)CC2)cc(=O)n3C)c(C#N)c(Cl)n1 [Example 24a, 6-chloro-5-cyano-4-((4-((1-cyanocyclopropyl)amino)-1-methyl-2-oxo-1,2-dihydroquinolin-6-yl)amino)-N-methylpicolinamide]
11 | 6.38 | 6.40 | – | Cc1nc(C(C)Nc2cc(=O)n(C)c3ccc(Nc4ccnc(Cl)c4C#N)cc23)no1 (centres unmarked) [Example 1h, 2-chloro-4-[[1-methyl-4-[1-(5-methyl-1,2,4-oxadiazol-3-yl)ethylamino]-2-oxo-6-quinolyl]amino]pyridine-3-carbonitrile]
12 | 7.25 | – | – | CC(Nc1cc(=O)n(C)c2ccc(Nc3cc(C(=O)O)nc(Cl)c3C#N)cc12)c1ncc(C2CC2)cn1 (centres unmarked) [Example 9p, 6-chloro-5-cyano-4-((4-((1-(5-cyclopropylpyrimidin-2-yl)ethyl)amino)-1-methyl-2-oxo-1,2-dihydroquinolin-6-yl)amino)picolinic acid]
13 | 6.41 | 6.40 | – | CCNC(=O)C(C)(C)Nc1cc(=O)n(C)c2ccc(Nc3ccnc(Cl)c3C#N)cc12 [Example 3h, 2-((6-((2-Chloro-3-cyanopyridin-4-yl)amino)-1-methyl-2-oxo-1,2-dihydroquinolin-4-yl)amino)-N-ethyl-2-methylpropanamide]
14 | 6.33 | – | – | CNC(=O)c1cc(Nc2ccc3c(c2)c(NC(C)(C)C)cc(=O)n3C)c(C#N)c(Cl)n1 [Example 7c, 4-((4-(tert-butylamino)-1-methyl-2-oxo-1,2-dihydroquinolin-6-yl)amino)-6-chloro-5-cyano-N-methylpicolinamide]

Further lines, the compound ahead of its results:

Row | SMILES | HTRF pIC50 [1] | HTRF pIC50 [2] | IC50 [1] [nM]
15 | C[C@@H](Nc1cc(=O)n(C)c2ccc(Nc3ccnc(Cl)c3C#N)cc12)C(=O)NC1CCCC1 [Example 3d, (R)-2-((6-((2-Chloro-3-cyanopyridin-4-yl)amino)-1-methyl-2-oxo-1,2-dihydroquinolin-4-yl)amino)-N-cyclopentylpropanamide] | 6.61 | 6.62 | –
16 | CC(Nc1cc(=O)n(C)c2ncc(Nc3nc(N4CCC(F)(F)CC4)ncc3Cl)cc12)c1ncccn1 (centres unmarked) [Example 17b, 6-((5-chloro-2-(4,4-difluoropiperidin-1-yl)pyrimidin-4-yl)amino)-1-methyl-4-((1-(pyrimidin-2-yl)ethyl)amino)-4,/- naphthyridin-2(1H)-one] | 6.11 | – | –
17 | CC(Nc1cc(=O)n(C)c2ccc(Nc3nc(N4CCC5(CCCN(C)C5=O)CC4)ncc3Cl)cc12)c1ncccn1 (centres unmarked) [Example 17g, 9-(5-chloro-4-((1-methyl-2-oxo-4((1-(pyrimidin-2-yl)ethyl)amino)-1,2-dihydroquinolin-6-yl)amino)pyrimidin-2-yl)-2-methyl-2,9-diazaspiro[5.5]undecan-1-one] | 6.24 | – | –
18 | C[C@@H]1CN(c2ncc(Cl)c(Nc3ccc4c(c3)c(N[C@H](C)C3CC3)cc(=O)n4C)n2)C[C@H](C)O1 [Example 17d, 6-((5-chloro-2-((2S,6R)-2,6-dimethylmorpholino)pyrimidin-4-yl)amino)-4-(((R)-1-cyclopropylethyl)amino)-1-methylquinolin-2(1H)-one:formic acid (1:1)] | 6.19 | – | –
19 | COc1cc(Nc2ccc3c(c2)c(N[C@H](CO)C2CC2)cc(=O)n3C)c(Cl)cn1 [Example 15c, (S)-6-((5-chloro-2-methoxypyridin-4-yl)amino)4-4((1-cyclopropyl-2-hydroxyethyl)amino)-1-methylquinoline-2(1H)-one] | – | – | 575
20 | C[C@@H](Nc1cc(=O)n(C)c2ccc(Nc3ccnc(Cl)c3C#N)cc12)C(=O)NCCc1cnn(C)c1 [Example 3m, (R)-2-((6-((2-Chloro-3-cyanopyridin-4-yl)amino)-1-methyl-2-oxo-1,2-dihydroquinolin-4-yl)amino)-N-(2-(1-methyl-1H-pyrazol-4-yl)ethyl)propanamide] | – | 6.06 | –
21 | Cc1nccc(Nc2ccc3c(c2)c(NC(C)c2ncccn2)cc(=O)n3C)c1C#N (centres unmarked) [Example 18a, 2-methyl-4-((1-methyl-2-oxo-4-((1-(pyrimidin-2-yl)ethyl)amino)-1,2-dihydroquinolin-6-yl)amino)nicotinonitrile] | 6.30 | – | –
22 | C[C@@H]1CN(c2cc(Nc3ccc4c(c3)c(N[C@H](C)C3CC3)cc(=O)n4C)c(Cl)cn2)C[C@H](C)O1 [Example 6h, 6-((5-chloro-2-((2S,6R)-2,6-dimethylmorpholino)pyridin-4-yl)amino)-4-(((R)-1-cyclopropylethyl)amino)-1-methylquinolin-2(1H)-one] | 6.00 | – | –
23 | Cc1nc(N2CCC(C(=O)N(C)C)CC2)nc(Nc2ccc3c(c2)c(NC(C)(C)c2ncccn2)cc(=O)n3C)c1Cl [Example 16c, 1-(5-chloro-4-methyl-6-((1-methyl-2-oxo-4((2-(pyrimidin-2-yl)propan-2-yl)amino)-1,2-dihydroquinolin-6-yl)amino)pyrimidin-2-yl)-N,N-dimethylpiperidine-4-carboxamide] | 6.36 | – | –
24 | CC(CO)Nc1nc(=O)n(C)c2ccc(Nc3ccnc(Cl)c3C#N)cc12 (centres unmarked) [Example 1l, 2-chloro-4-[[4-[(2-hydroxy-1-methyl-ethyl)amino]-1-methyl-2-oxo-quinazolin-6-yl]amino]pyridine-3-carbonitrile] | 5.98 | 6.18 | –
25 | CCNc1cc(=O)n(CCN2C(=O)CCC2=O)c2ccc(Nc3ccnc(Cl)c3C#N)cc12 [Example 1r, 2-chloro-4-[[1-[2-(2,5-dioxopyrrolidin-1-yl)ethyl]-4-(ethylamino)-2-oxo-6-quinolyl]amino]pyridine-3-carbonitrile] | 6.25 | 6.05 | –
26 | C[C@@H](Nc1cc(=O)n(C)c2ccc(Nc3nc(N4CCC4)ncc3Cl)cc12)C1CC1 [Example 26a, (R)-6-((2-(azetidin-1-yl)-5-chloropyrimidin-4-yl)amino)-4-((1-cyclopropylethyl)amino)-1-methylquinolin-2(1H)-one: formic acid (1:1)] | 6.25 | – | –
27 | CC(Nc1cc(=O)n(C)c2ccc(Nc3ncnc(Cl)c3Cl)cc12)c1ncccn1 (centres unmarked) [Example 19e, 6-((5,6-dichloropyrimidin-4-yl)amino)-1-methyl-4-((1-(pyrimidin-2-yl)ethyl)amino)quinolin-2(1H)-one] | 6.05 | – | –
28 | COCCOCC(C)Nc1cc(=O)n(C)c2ccc(Nc3ccnc(Cl)c3C#N)cc12 (centres unmarked) [Example 11g, 2-chloro-4-((4-((1-(2-methoxyethoxy)propan-2-yl)amino)-1-methyl-2-oxo-1,2-dihydroquinolin-6-yl)amino)nicotinonitrile] | 6.05 | – | –
